The record followed here is publication PMC12472322, “Structure–Activity Relationship Study of 3-Alkynyl-6-aryl-isothiazolo[4,3-b]pyridines as Dual Inhibitors of the Lipid Kinases PIKfyve and PIP4K2C” (Pharmaceuticals, 2025).

The IC50 is the point on the concentration scale where inhibition reaches its midpoint. By EC50 is commonly meant the midpoint of the concentration-response curve. As usually defined, the CC50 is the concentration at which the toxic effect on the cells reaches its halfway point. By Kd is commonly meant the concentration at which binding is half-saturated. A low value points to a tighter complex.

The target in series [1] is T1, PIKfyve (Homo sapiens, UniProt Q9Y2I7).
T1 construct: purchased Nanosyn, Santa Clara, CA, USA (contract assay service)
T1 sequence (Q9Y2I7 whole entry): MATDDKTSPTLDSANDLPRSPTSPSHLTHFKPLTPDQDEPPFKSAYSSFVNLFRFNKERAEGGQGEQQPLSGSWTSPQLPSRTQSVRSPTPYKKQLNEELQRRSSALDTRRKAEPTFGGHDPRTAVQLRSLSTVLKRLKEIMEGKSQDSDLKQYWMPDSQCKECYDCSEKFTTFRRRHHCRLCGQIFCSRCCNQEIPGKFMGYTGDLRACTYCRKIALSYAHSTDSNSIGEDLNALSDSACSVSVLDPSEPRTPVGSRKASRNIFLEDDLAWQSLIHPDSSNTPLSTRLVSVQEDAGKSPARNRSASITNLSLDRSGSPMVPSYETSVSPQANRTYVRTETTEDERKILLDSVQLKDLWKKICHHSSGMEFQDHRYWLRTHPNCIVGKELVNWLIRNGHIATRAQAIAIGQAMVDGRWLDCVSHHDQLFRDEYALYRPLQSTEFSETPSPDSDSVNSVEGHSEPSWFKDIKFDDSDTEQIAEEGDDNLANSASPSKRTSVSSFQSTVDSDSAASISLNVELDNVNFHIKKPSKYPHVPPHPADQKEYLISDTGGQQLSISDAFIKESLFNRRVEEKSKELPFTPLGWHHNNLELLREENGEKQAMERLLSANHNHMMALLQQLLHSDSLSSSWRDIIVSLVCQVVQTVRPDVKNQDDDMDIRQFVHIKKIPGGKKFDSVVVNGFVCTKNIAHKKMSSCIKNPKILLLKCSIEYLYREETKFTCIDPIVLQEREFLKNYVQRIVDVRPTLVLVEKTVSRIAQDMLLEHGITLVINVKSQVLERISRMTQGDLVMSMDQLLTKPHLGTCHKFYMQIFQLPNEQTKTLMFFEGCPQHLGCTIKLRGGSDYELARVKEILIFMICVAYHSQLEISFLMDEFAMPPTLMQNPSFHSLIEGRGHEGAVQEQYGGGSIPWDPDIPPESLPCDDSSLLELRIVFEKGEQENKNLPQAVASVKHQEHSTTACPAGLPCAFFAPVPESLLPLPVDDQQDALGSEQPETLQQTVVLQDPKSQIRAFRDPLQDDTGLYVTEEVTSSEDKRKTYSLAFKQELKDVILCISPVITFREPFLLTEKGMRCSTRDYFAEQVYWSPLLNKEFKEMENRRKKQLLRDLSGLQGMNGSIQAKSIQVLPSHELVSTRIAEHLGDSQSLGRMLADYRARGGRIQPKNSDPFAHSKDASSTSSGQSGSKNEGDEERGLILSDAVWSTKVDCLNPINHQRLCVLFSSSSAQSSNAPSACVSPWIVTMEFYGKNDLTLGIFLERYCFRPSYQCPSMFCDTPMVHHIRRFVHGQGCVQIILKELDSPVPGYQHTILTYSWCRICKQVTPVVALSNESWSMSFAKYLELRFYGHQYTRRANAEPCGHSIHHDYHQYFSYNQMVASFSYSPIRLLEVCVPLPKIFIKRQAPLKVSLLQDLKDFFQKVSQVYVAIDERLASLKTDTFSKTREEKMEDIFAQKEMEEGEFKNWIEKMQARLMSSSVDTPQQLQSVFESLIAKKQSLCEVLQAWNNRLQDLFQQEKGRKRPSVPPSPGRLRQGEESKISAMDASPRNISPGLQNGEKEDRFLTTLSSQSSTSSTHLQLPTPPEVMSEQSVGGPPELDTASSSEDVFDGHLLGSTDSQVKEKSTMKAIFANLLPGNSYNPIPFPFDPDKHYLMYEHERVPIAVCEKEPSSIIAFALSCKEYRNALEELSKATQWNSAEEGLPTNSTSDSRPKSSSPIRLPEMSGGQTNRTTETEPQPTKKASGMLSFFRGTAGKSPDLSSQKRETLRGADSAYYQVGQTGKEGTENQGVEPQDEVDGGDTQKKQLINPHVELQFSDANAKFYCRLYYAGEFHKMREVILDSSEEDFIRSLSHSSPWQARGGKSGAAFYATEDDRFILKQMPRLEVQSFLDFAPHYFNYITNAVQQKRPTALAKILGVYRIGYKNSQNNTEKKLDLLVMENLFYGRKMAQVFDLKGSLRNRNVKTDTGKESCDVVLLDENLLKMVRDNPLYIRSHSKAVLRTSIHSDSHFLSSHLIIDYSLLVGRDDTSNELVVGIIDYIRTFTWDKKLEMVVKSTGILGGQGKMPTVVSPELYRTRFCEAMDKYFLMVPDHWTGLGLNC
In words: biochemical PIKfyve mobility shift assay (Nanosyn).

The test system of series [2] is VEEV (TC-83). In words: microbe, parasite or virus in culture. The settings on record: Venezuelan equine encephalitis virus, U-87 MG, 18 h, read-out: VEEV (TC-83) EC50. The format is cell-based.
Series [3] has as its system SARS-CoV-2. In words: microbe, parasite or virus in culture. It counts as cell-based, severe acute respiratory syndrome coronavirus 2. The settings on record: for EC50: Severe acute respiratory syndrome coronavirus 2, VeroE6/TMPRSS2, 24 h, read-out: SARS-CoV2 EC50.
Series [4] can be described thus: cell viability (AlamarBlue) in SARS-CoV-2-infected Vero E6/TMPRSS2 cells. It counts as cell-based. The settings on record: African green monkey, Vero E6/TMPRSS2 cells infected with SARS-CoV-2, half-maximal cytotoxic concentration, read-out: SARS-CoV2 CC50. (Alamar Blue is a resazurin reagent that responds to reducing activity.)
In series [5] the test system is U-87 MG cells. The settings on record: half-maximal cytotoxic concentration.
Series [6] deals with T2, PIP4K2C (Homo sapiens, UniProt Q8TBX8).
T2 sequence (Q8TBX8 1-421): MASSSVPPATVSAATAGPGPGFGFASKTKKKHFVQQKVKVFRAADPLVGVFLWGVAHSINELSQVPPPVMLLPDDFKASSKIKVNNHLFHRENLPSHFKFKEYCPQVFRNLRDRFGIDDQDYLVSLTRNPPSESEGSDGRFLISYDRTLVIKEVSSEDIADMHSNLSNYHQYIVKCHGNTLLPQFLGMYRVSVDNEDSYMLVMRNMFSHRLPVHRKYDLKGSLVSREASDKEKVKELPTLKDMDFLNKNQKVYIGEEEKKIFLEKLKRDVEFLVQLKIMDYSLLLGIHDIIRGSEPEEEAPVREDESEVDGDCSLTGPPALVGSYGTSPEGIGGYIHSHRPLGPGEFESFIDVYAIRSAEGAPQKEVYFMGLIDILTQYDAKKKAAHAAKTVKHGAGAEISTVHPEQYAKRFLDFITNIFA
In words: PIP4K2C binding assay (DiscoverX/Kinome platform).

Take `COc1cc(-c2cnc3c(C#Cc4cccnc4)snc3c2)ccc1C(=O)O` [Compound 4, 2-Methoxy-4-(3-(pyridin-3-ylethynyl)isothiazolo[4,3-b]pyridin-6-yl)benzoic acid]: the IC50 in series [1] (Table 5 column) came out at 49 nM; in series [1] (Tables 1-4 and text) it was 49 nM. The EC50 worked out at 8700 ± 1700 nM in series [2] and 360 ± 190 nM in series [3]. In addition, in series [4], the cytotoxic concentration (CC50) is over 20000 nM. Besides, the “VEEV (TC-83) CC50” value in series [5] was over 10000 nM. The compound further came in with a dissociation constant Kd in series [6] of 68 nM.
`Clc1cccc(-c2cnc3c(C#Cc4cccnc4)snc3c2)c1` [Compound 3i, 6-(3-Chlorophenyl)-3-(pyridin-3-ylethynyl)isothiazolo[4,3-b]pyridine]: the IC50 in series [1] (Table 5 column) was 21 nM; in series [1] (Tables 1-4 and text) it was 21 nM. In addition, the Kd in series [6] was found to be 180 nM.
Take `COc1ccc(-c2cnc3c(C#Cc4cncc(F)c4)snc3c2)cc1OC` [Compound 7r, 6-(3,4-Dimethoxyphenyl)-3-((5-fluoropyridin-3-yl)ethynyl)isothiazolo[4,3-b]pyridine]: the IC50 was 98 nM in series [1] (Table 5 column); 98 nM in series [1] (Tables 1-4 and text). Also, the EC50 came to 1850 ± 120 nM in series [2] and 1920 ± 520 nM in series [3]. Moreover, in series [4], the CC50 is over 20000 nM. Moreover, the “VEEV (TC-83) CC50” value in series [5] is over 10000 nM. The compound also gave a Kd in series [6] of 110 nM.
In the case of `COc1ccc(-c2cnc3c(C#Cc4ccccc4F)snc3c2)cc1OC` [Compound 7e, 6-(3,4-Dimethoxyphenyl)-3-((2-fluorophenyl)ethynyl)isothiazolo[4,3-b]pyridine], the IC50 turned out to be 62 nM in series [1] (Table 5 column); 62 nM in series [1] (Tables 1-4 and text). Besides, the EC50 in series [2] turned out to be 16800 ± 1250 nM; in series [3], 550 ± 150 nM. The CC50 in series [4] turned out to be 15700 ± 1340 nM. Further, the “VEEV (TC-83) CC50” value in series [5] is over 20000 nM. In series [6], binding was put at a Kd of 280 nM.
As for `COC(=O)c1cncc(C#Cc2snc3cc(-c4ccc(OC)c(OC)c4)cnc23)c1` [Compound 7m, Methyl 5-((6-(3,4-dimethoxyphenyl)isothiazolo[4,3-b]pyridin-3-yl)ethynyl)nicotinate], the IC50 in series [1] (Tables 1-4 and text) worked out at 120 nM. Also, the EC50 in series [2] amounted to 1160 ± 1 nM; in series [3], 2560 ± 860 nM. The CC50 in series [4] was over 20000 nM. The “VEEV (TC-83) CC50” value in series [5] is over 10000 nM.
For the compound `COc1cccc(-c2cnc3c(C#Cc4cccnc4)snc3c2)c1` [Compound 3a, 6-(3-Methoxyphenyl)-3-(pyridin-3-ylethynyl)isothiazolo[4,3-b]pyridine], the IC50 was found to be 6.8 nM in series [1] (Table 5 column); 6.8 nM in series [1] (Tables 1-4 and text). The EC50 in series [2] was found to be 6880 ± 330 nM. In series [4], the 50% cytotoxic concentration (CC50) was under 10000 nM. Further, in series [5], the “VEEV (TC-83) CC50” value is over 10000 nM. The dissociation constant Kd in series [6] worked out at 190 nM.
As for `COc1ccc(-c2cnc3c(C#Cc4ccc(C#N)nc4)snc3c2)cc1OC` [Compound 7q, 5-((6-(3,4-Dimethoxyphenyl)isothiazolo[4,3-b]pyridin-3-yl)ethynyl)picolinonitrile], the half-inhibitory concentration (IC50) in series [1] (Tables 1-4 and text) was over 10000 nM. Also, the Kd in series [6] was over 30000 nM.
For `C(#Cc1snc2cc(-c3ccc(OCCN4CCCC4)cc3)cnc12)c1cccnc1` [Compound 5b, 3-(Pyridin-3-ylethynyl)-6-(4-(2-(pyrrolidin-1-yl)ethoxy)phenyl)isothiazolo[4,3-b]pyridine], in series [1] (Tables 1-4 and text), the IC50 worked out at 5.5 nM. For the same compound, the EC50 in series [2] turned out to be 710 ± 90 nM; in series [3], 1420 ± 140 nM. Besides, in series [4], the half-maximal cytotoxic concentration (CC50) was over 20000 nM. For the same compound, in series [5], the “VEEV (TC-83) CC50” value is over 10000 nM.
Regarding `COc1ccncc1C#Cc1snc2cc(-c3ccc(OC)c(OC)c3)cnc12` [Compound 7o, 6-(3,4-Dimethoxyphenyl)-3-((4-methoxypyridin-3-yl)ethynyl)isothiazolo[4,3-b]pyridine], the IC50 in series [1] (Table 5 column) came out at 19 nM; in series [1] (Tables 1-4 and text) it was 19 nM. The EC50 in series [2] stood at 920 ± 80 nM. Further, in series [4], the CC50 is under 10000 nM. In addition, the “VEEV (TC-83) CC50” value in series [5] came out at 7690 ± 1 nM. Besides, the affinity in series [6], expressed as Kd, was 230 nM.
Turning to `C(#Cc1snc2cc(-c3ccc(OCCN4CCOCC4)cc3)cnc12)c1cccnc1` [Compound 5a, 4-(2-(4-(3-(Pyridin-3-ylethynyl)isothiazolo[4,3-b]pyridin-6-yl)phenoxy)ethyl)morpholine], the half-inhibitory concentration (IC50) in series [1] (Tables 1-4 and text) came out at 7.1 nM. Besides, the EC50 in series [2] is 310 ± 10 nM; in series [3], 5630 ± 970 nM. The CC50 in series [4] was over 20000 nM. Also, in series [5], the “VEEV (TC-83) CC50” value is over 10000 nM.
Take `COc1cccc(C#Cc2snc3cc(-c4ccc(OC)c(OC)c4)cnc23)c1` [Compound 7f, 6-(3,4-Dimethoxyphenyl)-3-((3-methoxyphenyl)ethynyl)isothiazolo[4,3-b]pyridine]: the IC50 in series [1] (Tables 1-4 and text) amounted to 21 nM. Also, the EC50 in series [2] was 4790 ± 240 nM. The 50% cytotoxic concentration (CC50) in series [4] was under 10000 nM. In series [5], the “VEEV (TC-83) CC50” value was over 10000 nM.
For `Fc1ccccc1-c1cnc2c(C#Cc3cccnc3)snc2c1` [Compound 3h, 6-(2-Fluorophenyl)-3-(pyridin-3-ylethynyl)isothiazolo[4,3-b]pyridine], the IC50 in series [1] (Tables 1-4 and text) was 8.8 nM. Moreover, the figures for the 50% effective concentration (EC50) in series [2] and in series [3] were 6930 ± 130 nM and 1340 ± 500 nM, respectively. In addition, the CC50 in series [4] was over 20000 nM. Besides, in series [5], the “VEEV (TC-83) CC50” value is over 20000 nM.
In the case of `COc1cc(-c2cnc3c(C#Cc4cccnc4)snc3c2)ccc1N` [Compound 3f, 2-Methoxy-4-(3-(pyridin-3-ylethynyl)isothiazolo[4,3-b]pyridin-6-yl)aniline], the IC50 in series [1] (Table 5 column) was found to be 2.8 nM; in series [1] (Tables 1-4 and text), 2.8 nM. Moreover, the EC50 in series [2] amounted to 260 ± 80 nM; in series [3], 2740 ± 40 nM. The CC50 in series [4] was over 20000 nM. Moreover, in series [5], the “VEEV (TC-83) CC50” value was over 20000 nM. This compound also registered a dissociation constant (Kd) in series [6] of 44 nM.
As to `COc1ccc(-c2cnc3c(C#Cc4cnc5ccccc5c4)snc3c2)cc1OC` [Compound 7w, 6-(3,4-Dimethoxyphenyl)-3-(quinolin-3-ylethynyl)isothiazolo[4,3-b]pyridine], the IC50 turned out to be 5690 nM in series [1] (Table 5 column); 5690 nM in series [1] (Tables 1-4 and text). The “fold less potent on PIKfyve relative to RMC-113” value in series [1] (ratio of IC50 values) is 700 fold. In series [2], the EC50 worked out at 2080 ± 100 nM. In addition, in series [3] (Vero E6/TMPRSS2 cells), the “SARS-CoV-2 screening, result in words” value was “only cytotoxicity was observed”. For the same compound, in series [4], the CC50 was under 10000 nM. Also, in series [5], the “VEEV (TC-83) CC50” value was over 10000 nM. In series [6], this compound came in with an equilibrium dissociation constant (Kd) of 2000 nM.
In the case of `COCCNC(=O)c1cccc(-c2cnc3c(C#Cc4cccnc4)snc3c2)c1` [Compound 3s, N-(2-Methoxyethyl)-3-(3-(pyridin-3-ylethynyl)isothiazolo[4,3-b]pyridin-6-yl)benzamide], the IC50 in series [1] (Table 5 column) was found to be 1.9 nM; in series [1] (Tables 1-4 and text), 1.9 nM. Further, the results for the EC50 in series [2] and in series [3] were 400 ± 80 nM and 5650 ± 1490 nM, respectively. Further, the CC50 in series [4] is over 20000 nM. Moreover, in series [5], the “VEEV (TC-83) CC50” value is over 10000 nM. This compound also registered a Kd in series [6] of 30 nM.
Turning to `CN(C)C(=O)c1cccc(-c2cnc3c(C#Cc4cccnc4)snc3c2)c1` [Compound 3q, N,N-Dimethyl-3-(3-(pyridin-3-ylethynyl)isothiazolo[4,3-b]pyridin-6-yl)benzamide], the IC50 in series [1] (Tables 1-4 and text) was 18 nM.
For the compound `COc1ccc(-c2cnc3c(CCc4cccnc4)snc3c2)cc1OC` [Compound 22, 6-(3,4-Dimethoxyphenyl)-3-(2-(pyridin-3-yl)ethyl)isothiazolo[4,3-b]pyridine], in series [1] (Tables 1-4 and text), the half-inhibitory concentration (IC50) stood at 33 nM.
On to `COc1ccc(-c2cnc3c(C#Cc4cc(F)cnc4OC)snc3c2)cc1OC` [Compound 7t, 6-(3,4-Dimethoxyphenyl)-3-((5-fluoro-2-methoxypyridin-3-yl)ethynyl)isothiazolo[4,3-b]pyridine], for which the IC50 in series [1] (Tables 1-4 and text) is over 10000 nM.
As to `COc1ccc(-c2cnc3c(C#CCNC(=O)c4ccccc4)snc3c2)cc1OC` [Compound 11a, N-(3-(6-(3,4-Dimethoxyphenyl)isothiazolo[4,3-b]pyridin-3-yl)prop-2-yn-1-yl)benzamide], in series [1] (Tables 1-4 and text), the IC50 amounted to 2040 nM.
As for `O=C(c1cccc(-c2cnc3c(C#Cc4cccnc4)snc3c2)c1)N1CCCC1` [Compound 3r, (3-(3-(Pyridin-3-ylethynyl)isothiazolo[4,3-b]pyridin-6-yl)phenyl)(pyrrolidin-1-yl)methanone], the IC50 in series [1] (Tables 1-4 and text) amounted to 6.1 nM.
With `COc1ccc(-c2cnc3c(C#Cc4cc(C)cnc4F)snc3c2)cc1OC` [Compound 7v, 6-(3,4-Dimethoxyphenyl)-3-((2-fluoro-5-methylpyridin-3-yl)ethynyl)isothiazolo[4,3-b]pyridine], in series [1] (Tables 1-4 and text), the IC50 worked out at 42 nM.
As to `CN(C)C(=O)c1ccc(-c2cnc3c(C#Cc4cccnc4)snc3c2)cc1` [Compound 3o, N,N-Dimethyl-4-(3-(pyridin-3-ylethynyl)isothiazolo[4,3-b]pyridin-6-yl)benzamide], in series [1] (Tables 1-4 and text), the IC50 was determined as 25 nM.
